According to ChEMBL document CHEMBL1201862, “PubChem BioAssay data set” (2004):
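Results reflect a 48-hour exposure of cells in 96-well plates to compound at five concentrations. Abbreviation: GI50, concentration required for 50% inhibition of growth.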 The source made the active and inactive calls. No stated cut-off is given here; in the data, active = GI50 up to about 1.1 µM and inactive = higher.

Tests used:
Assay in all cases: NCI-60 cell line screen, 48 h
[1] = system: A549
[2] = system: SK-MEL-5
[3] = system: OVCAR-8
[4] = system: SK-OV-3
[5] = system: RXF 393
[6] = system: TK-10
[7] = system: DMS-114
[8] = system: HT-29
[9] = system: SF-268
[10] = system: DLD-1
[11] = system: SW-620
[12] = system: XF498
[13] = system: KM12
[14] = system: U-251
[15] = system: SF-539
[16] = system: NCI-H226
[17] = system: M19-MEL
[18] = system: SR
[19] = system: UACC-62
[20] = system: UACC-257
[21] = system: HL-60
[22] = system: SNB-19
[23] = system: 786-0
[24] = system: SNB-75
[25] = system: HCT-15
[26] = system: A498
[27] = system: KM-20L2
[28] = system: SNB-78
[29] = system: CAKI-1
[30] = system: LXFL 529
[31] = system: M14
[32] = system: EKVX
[33] = system: RPMI-8226
[34] = system: DMS-273
[35] = system: OVCAR-3
[36] = system: HOP-62
[37] = system: HOP-92
[38] = system: K562
[39] = system: LOX IMVI
[40] = system: CCRF-CEM
[41] = system: NCI-H23
[42] = system: ACHN
[43] = system: RXF 631
[44] = system: NCI-H522
[45] = system: SF-295
[46] = system: COLO 205
[47] = system: SK-MEL-28
[48] = system: SN12C
[49] = system: HCC 2998
[50] = system: OVCAR-5
[51] = system: Malme-3M
[52] = system: UO-31
[53] = system: IGROV-1
[54] = system: HCT-116
[55] = system: SK-MEL-2
[56] = system: MOLT-4
[57] = system: OVCAR-4
[58] = system: HOP-18
[59] = system: NCI-H460

Measured: GI50

NCCc1ccc2oc3cc(=O)c4ccccc4c-3nc2c1
966 nM: [25]
inactive: [3] 4910 nM | [4] 12100 nM | [5] 2840 nM | [6] 14000 nM | [8] 1820 nM | [9] 3850 nM | [10] 2040 nM | [11] 2190 nM | [12] 3410 nM | [13] 2670 nM | [14] 2620 nM | [15] 2600 nM | [16] 5190 nM | [18] 1620 nM | [19] 4370 nM | [20] 2370 nM | [21] 1680 nM | [22] 2710 nM | [23] 2120 nM | [24] 2220 nM | [26] 13300 nM | [27] 2750 nM | [28] 9350 nM | [29] 11500 nM | [30] 2580 nM | [31] 1710 nM | [32] 11600 nM | [33] 2550 nM | [34] 1360 nM | [35] 2160 nM | [36] 3090 nM | [37] 7710 nM | [38] 2020 nM | [39] 1240 nM | [40] 1790 nM | [42] 2610 nM | [43] 2960 nM | [44] 2590 nM | [45] 2300 nM | [47] 3810 nM | [48] 2220 nM | [49] 2370 nM | [50] 6140 nM | [51] 2120 nM | [52] 2140 nM | [53] 2590 nM | [54] 1410 nM | [55] 1710 nM | [56] 1900 nM | [57] 4680 nM
active: [1] 478 nM | [2] 705 nM | [7] 1080 nM | [17] 300 nM | [41] 746 nM | [46] 428 nM | [58] 1000 nM | [59] 900 nM
